Measured values from patent US20090137549A1, “Novel compounds useful for the treatment of degenerative & inflamatory diseases” (priority 2006, published 2009).

Biological target: PDE1A (Homo sapiens, UniProt P54750)
Assay: PDE1A dose response, Cyclic Nucleotide Phosphodiesterase Assay Kit from Biomol (colorimetric)
Format: biochemical
Conditions: purified PDE1A enzyme, 100 μM cAMP
Source text: For the dose response and further screening, we used the Cyclic Nucleotide
Phosphodiesterase Assay Kit from Biomol, a colorimetric, non-radioactive assay. The basis for the assay is the cleavage of cAMP by PDE1A. The 5′AMP is further cleaved into the nucleoside and phosphate by the enzyme 5′-nucleotidase (catnr KI-307). The phosphate released due to enzymatic cleavage is quantified using BIOMOL GREEN™ reagent (catnr AK-111) in a modified Malachite Green assay^1,2. A PDE1A inhibitor will result in a decrease of the signal.
For the enzymatic reaction a mix of 25 μL with purified PDE1A enzyme, 100 μM cAMP, 5′Nucleotidase and the compound is made in a clear 384-plate. The reaction buffer is Tris 20 mM pH 7.4, 4 μg/mL calmodulin, 3 mM MgCl2, 1.5 mM CaCl2, 0.2 mg/mL BSA and 0.001% Brij-35. After an incubation of 45 minutes at 37° C., the reaction is stopped by the addition of 50 μL BIOMOL GREEN™ reagent. After 30 minutes incubation at room temperature, the readout is performed on the Envision (absorption at 615 nm).
All compounds are tested in duplicate starting from […] followed by a 1/3 serial dilution, 8 points (20 μM-6.67 μM-2.22 μM-740 nM-247 nM-82 nM-27 nM-9 nM) in a final concentration of 1% DMSO. As the positive dose response control compound Vardenafil is used. For the calculation of z′ and PIN values 10 μM Vardenafil is used as positive control (100% inhibition) and 1% DMSO as negative control (0% inhibition).
The following compounds have been or can be prepared according to the synthetic methods described above. For the purpose of Table 7 below, PDE1A activity of each compound, which can be determined using the assay methods described herein, is expressed as follows: […]

IC50, 1 to 100 nM:
Cc1nn(C(C)(C)C)c2nc(C3CN(C(=O)Nc4ccc5c(c4)OCO5)C3)[nH]c(=O)c12 [Example 1, N-(Benzo[d][1,3]dioxol-5-yl)-3-(1-tert-butyl-3-methyl-4-oxo-4,5-dihydro-1H-pyrazolo[3,4-d]pyrimidin-6-yl)azetidine-1-carboxamide]
CC(C)N1CCN(c2ccc(NC(=O)N3CC(c4nc5c(cnn5C5CCCCC5)c(=O)[nH]4)C3)cc2)CC1 [Example 2, 3-(1-Cyclohexyl-4-oxo-4,5-dihydro-1H-pyrazolo[3,4-d]pyrimidin-6-yl)-N-(4-(4-isopropylpiperazin-1-yl)phenyl)azetidine-1-carboxamide]
CN1CCN(c2ccc(NC(=O)N3CC(c4nc5c(cnn5C5CCCCC5)c(=O)[nH]4)C3)cc2)CC1 [Example 3, 3-(1-cyclohexyl-4-oxo-4,5-dihydro-1H-pyrazolo[3,4-d]pyrimidin-6-yl)-N-(4-(4-methylpiperazin-1-yl)phenyl)azetidine-1-carboxamide]
Cc1ccc(NC(=O)N2CC(c3nc4c(cnn4C4CCCCC4)c(=O)[nH]3)C2)cc1C [Example 4, 3-(1-cyclohexyl-4-oxo-4,5-dihydro-1H-pyrazolo[3,4-d]pyrimidin-6-yl)-N-(3,4-dimethylphenyl)azetidine-1-carboxamide]
O=C(NCC1CCCCC1)N1CC(c2nc3c(cnn3C3CCCCC3)c(=O)[nH]2)C1 [Example 5, 3-(1-cyclohexyl-4-oxo-4,5-dihydro-1H-pyrazolo[3,4-d]pyrimidin-6-yl)-N-(cyclohexylmethyl)azetidine-1-carboxamide]
Cc1nn(C(C)(C)C)c2nc(C3CN(C(=O)Nc4ccccc4)C3)[nH]c(=O)c12 [Example 6, 3-(1-tert-butyl-3-methyl-4-oxo-4,5-dihydro-1H-pyrazolo[3,4-d]pyrimidin-6-yl)-N-phenylazetidine-1-carboxamide]
CN(C)c1cccc(NC(=O)N2CC(c3nc4c(cnn4C4CCCCC4)c(=O)[nH]3)C2)c1 [Example 7, 3-(1-cyclohexyl-4-oxo-4,5-dihydro-1H-pyrazolo[3,4-d]pyrimidin-6-yl)-N-(3-(dimethylamino)phenyl)azetidine-1-carboxamide]
O=C(Nc1cccc(Cl)c1)N1CC(c2nc3c(cnn3C3CCCCC3)c(=O)[nH]2)C1 [Example 8, N-(3-chlorophenyl)-3-(1-cyclohexyl-4-oxo-4,5-dihydro-1H-pyrazolo[3,4-d]pyrimidin-6-yl)azetidine-1-carboxamide]
CN(C)c1ccc(NC(=O)N2CC(c3nc4c(cnn4C4CCCCC4)c(=O)[nH]3)C2)cc1 [Example 9, 3-(1-cyclohexyl-4-oxo-4,5-dihydro-1H-pyrazolo[3,4-d]pyrimidin-6-yl)-N-(4-(dimethylamino)phenyl)azetidine-1-carboxamide]
O=C(Nc1ccc(N2CCOCC2)cc1)N1CC(c2nc3c(cnn3C3CCCCC3)c(=O)[nH]2)C1 [Example 10, 3-(1-cyclohexyl-4-oxo-4,5-dihydro-1H-pyrazolo[3,4-d]pyrimidin-6-yl)-N-(4-morpholinophenyl)azetidine-1-carboxamide]
O=C(Nc1ccccc1)N1CC(c2nc3c(cnn3C3CCCCC3)c(=O)[nH]2)C1 [Example 11, 3-(1-cyclohexyl-4-oxo-4,5-dihydro-1H-pyrazolo[3,4-d]pyrimidin-6-yl)-N-phenylazetidine-1-carboxamide]
Cc1nn(C(C)(C)C)c2nc(C3CN(C(=O)Nc4ccc(F)cc4)C3)[nH]c(=O)c12 [Example 12, 3-(1-tert-butyl-3-methyl-4-oxo-4,5-dihydro-1H-pyrazolo[3,4-d]pyrimidin-6-yl)-N-(4-fluorophenyl)azetidine-1-carboxamide]
COc1ccc(NC(=O)N2CC(c3nc4c(cnn4C4CCCCC4)c(=O)[nH]3)C2)cc1 [Example 13, 3-(1-cyclohexyl-4-oxo-4,5-dihydro-1H-pyrazolo[3,4-d]pyrimidin-6-yl)-N-(4-methoxyphenyl)azetidine-1-carboxamide]
Cc1nn(C2CCCCC2)c2nc(C3CN(C(=O)Nc4ccccc4)C3)[nH]c(=O)c12 [Example 14, 3-(1-cyclohexyl-3-methyl-4-oxo-4,5-dihydro-1H-pyrazolo[3,4-d]pyrimidin-6-yl)-N-phenylazetidine-1-carboxamide]
Cc1nn(C(C)(C)C)c2nc(C3CN(C(=O)NC4CCCCC4)C3)[nH]c(=O)c12 [Example 15, 3-(1-tert-butyl-3-methyl-4-oxo-4,5-dihydro-1H-pyrazolo[3,4-d]pyrimidin-6-yl)-N-cyclohexylazetidine-1-carboxamide]
CC(C)(C)n1ncc2c(=O)[nH]c(C3CN(C(=O)Nc4ccc(F)cc4)C3)nc21 [Example 16, 3-(1-tert-butyl-4-oxo-4,5-dihydro-1H-pyrazolo[3,4-d]pyrimidin-6-yl)-N-(4-fluorophenyl)azetidine-1-carboxamide]
Cc1nn(C(C)(C)C)c2nc(C3CN(C(=O)NCc4ccc(F)cc4)C3)[nH]c(=O)c12 [Example 17, 3-(1-tert-butyl-3-methyl-4-oxo-4,5-dihydro-1H-pyrazolo[3,4-d]pyrimidin-6-yl)-N-(4-fluorobenzyl)azetidine-1-carboxamide]
CC(C)c1ccc(NC(=O)N2CC(c3nc4c(cnn4C4CCCCC4)c(=O)[nH]3)C2)cc1 [Example 18, 3-(1-cyclohexyl-4-oxo-4,5-dihydro-1H-pyrazolo[3,4-d]pyrimidin-6-yl)-N-(4-isopropylphenyl)azetidine-1-carboxamide]
O=C(Nc1ccc(F)cc1)N1CC(c2nc3c(cnn3C3CCCCC3)c(=O)[nH]2)C1 [Example 19, 3-(1-cyclohexyl-4-oxo-4,5-dihydro-1H-pyrazolo[3,4-d]pyrimidin-6-yl)-N-(4-fluorophenyl)azetidine-1-carboxamide]
O=C(Nc1ccc(F)c(F)c1)N1CC(c2nc3c(cnn3C3CCCCC3)c(=O)[nH]2)C1 [Example 20, 3-(1-cyclohexyl-4-oxo-4,5-dihydro-1H-pyrazolo[3,4-d]pyrimidin-6-yl)-N-(3,4-difluorophenyl)azetidine-1-carboxamide]
Cc1nn(C2CCCCC2)c2nc(C3CN(C(=O)Nc4ccc(F)cc4)C3)[nH]c(=O)c12 [Example 21, 3-(1-cyclohexyl-3-methyl-4-oxo-4,5-dihydro-1H-pyrazolo[3,4-d]pyrimidin-6-yl)-N-(4-fluorophenyl)azetidine-1-carboxamide]
Cc1nn(C(C)(C)C)c2nc(C3CN(C(=O)NCc4ccccc4)C3)[nH]c(=O)c12 [Example 22, N-benzyl-3-(1-tert-butyl-3-methyl-4-oxo-4,5-dihydro-1H-pyrazolo[3,4-d]pyrimidin-6-yl)azetidine-1-carboxamide]
O=C(NC1CCCCC1)N1CC(c2nc3c(cnn3C3CCCCC3)c(=O)[nH]2)C1 [Example 23, N-cyclohexyl-3-(1-cyclohexyl-4-oxo-4,5-dihydro-1H-pyrazolo[3,4-d]pyrimidin-6-yl)azetidine-1-carboxamide]
Cc1nn(C2CCCCC2)c2nc(C3CN(C(=O)NCc4ccccc4)C3)[nH]c(=O)c12 [Example 24, N-benzyl-3-(1-cyclohexyl-3-methyl-4-oxo-4,5-dihydro-1H-pyrazolo[3,4-d]pyrimidin-6-yl)azetidine-1-carboxamide]
O=C(Nc1ccc(OC(F)(F)F)cc1)N1CC(c2nc3c(cnn3C3CCCCC3)c(=O)[nH]2)C1 [Example 25, 3-(1-cyclohexyl-4-oxo-4,5-dihydro-1H-pyrazolo[3,4-d]pyrimidin-6-yl)-N-(4-(trifluoromethoxy)phenyl)azetidine-1-carboxamide]
CC(C)(C)OC(=O)N1CCCC(NC(=O)N2CC(c3nc4c(cnn4C4CCCCC4)c(=O)[nH]3)C2)C1 (centres unmarked) [Example 26, tert-butyl 3-(3-(1-cyclohexyl-4-oxo-4,5-dihydro-1H-pyrazolo[3,4-d]pyrimidin-6-yl)azetidine-1-carboxamido)piperidine-1-carboxylate]
Cc1nn(C2CCCCC2)c2nc(C3CN(C(=O)NCc4ccc(F)cc4)C3)[nH]c(=O)c12 [Example 27, 3-(1-cyclohexyl-3-methyl-4-oxo-4,5-dihydro-1H-pyrazolo[3,4-d]pyrimidin-6-yl)-N-(4-fluorobenzyl)azetidine-1-carboxamide]
COc1ccc(CNC(=O)N2CC(c3nc4c(c(C)nn4C4CCCCC4)c(=O)[nH]3)C2)cc1 [Example 28, 3-(1-cyclohexyl-3-methyl-4-oxo-4,5-dihydro-1H-pyrazolo[3,4-d]pyrimidin-6-yl)-N-(4-methoxybenzyl)azetidine-1-carboxamide]
Cc1nn(-c2ccc(F)cc2)c2nc(C3CN(C(=O)Nc4ccccc4OC(F)F)C3)[nH]c(=O)c12 [Example 29, N-(2-(difluoromethoxy)phenyl)-3-(1-(4-fluorophenyl)-3-methyl-4-oxo-4,5-dihydro-1H-pyrazolo[3,4-d]pyrimidin-6-yl)azetidine-1-carboxamide]
